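48-hour exposure; five concentrations; linearly interpolated endpoints. GI50 marks 50% less growth.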 Active and inactive are the calls of the source. No stated cut-off is given here; in the data, active = GI50 up to about 1.1 µM and inactive = higher. Where a SMILES comes first, the peptide text is derived from it. The star is where a group is joined. Cbz = O=C(OCc1ccccc1)*; OBn = c1ccc(CO*)cc1
Legend:
Assay in all cases: inhibition of tumour cell growth, NCI panel, 48 h
A549 = tested on: A549
CAKI-1 = tested on: CAKI-1
CCRF-CEM = tested on: CCRF-CEM
COLO 205 = tested on: COLO 205
HCC 2998 = tested on: HCC 2998
HL-60 = tested on: HL-60
HOP-92 = tested on: HOP-92
K562 = tested on: K562
M14 = tested on: M14
MCF7 = tested on: MCF7
NCI-H226 = tested on: NCI-H226
OVCAR-3 = tested on: OVCAR-3
OVCAR-4 = tested on: OVCAR-4
OVCAR-8 = tested on: OVCAR-8
SF-295 = tested on: SF-295
SK-MEL-28 = tested on: SK-MEL-28
TK-10 = tested on: TK-10
U-251 = tested on: U-251
UACC-62 = tested on: UACC-62
SNB-75 = tested on: SNB-75

Measured: GI50

C[N+](C)([O-])Cc1cccc(NC(=O)c2ccc(C(=O)Nc3cccc(C[N+](C)(C)[O-])c3)cc2)c1
inactive: A549 > 100 µM | CAKI-1 > 100 µM | CCRF-CEM > 100 µM | COLO 205 > 100 µM | HCC 2998 > 100 µM | HL-60 > 100 µM | HOP-92 > 100 µM | K562 > 100 µM | M14 > 100 µM | MCF7 > 100 µM | NCI-H226 > 100 µM | OVCAR-3 > 100 µM | OVCAR-4 > 100 µM | OVCAR-8 > 100 µM | SF-295 > 100 µM | SK-MEL-28 > 100 µM | TK-10 > 100 µM | U-251 > 100 µM | UACC-62 > 100 µM

Cc1ncc([N+](=O)[O-])n1CCNC(=O)CCCCCn1ccnc1[N+](=O)[O-]
inactive: A549 > 100 µM | CAKI-1 > 100 µM | CCRF-CEM > 100 µM | COLO 205 43.6 µM | HCC 2998 > 100 µM | HL-60 > 100 µM | K562 > 100 µM | M14 > 100 µM | MCF7 > 100 µM | NCI-H226 > 100 µM | OVCAR-3 > 100 µM | OVCAR-8 > 100 µM | SF-295 > 100 µM | SNB-75 > 100 µM | U-251 > 100 µM | UACC-62 > 100 µM

COc1cc(/C=C2/SC(c3ccccc3)N(c3ccccc3Cl)C2=O)cc(OC)c1OC (configuration not stated)
inactive: A549 36.3 µM | CAKI-1 55.7 µM | CCRF-CEM 12.2 µM | COLO 205 23.3 µM | HCC 2998 88.1 µM | HL-60 16.5 µM | HOP-92 26.1 µM | K562 31.2 µM | M14 30.1 µM | MCF7 35.9 µM | NCI-H226 30.1 µM | OVCAR-3 27.9 µM | OVCAR-4 41.6 µM | OVCAR-8 35.2 µM | SF-295 32.1 µM | SK-MEL-28 30.5 µM | TK-10 69.5 µM | U-251 23.1 µM | UACC-62 37.9 µM

Cc1cccc(NC(=O)CC(=O)N2N=C(N3c4ccccc4Sc4ccccc43)CC2c2ccccc2)c1 (configuration not stated)
inactive: A549 > 100 µM | CCRF-CEM > 100 µM | COLO 205 > 100 µM | HCC 2998 > 100 µM | HL-60 > 100 µM | HOP-92 > 100 µM | K562 > 100 µM | M14 > 100 µM | MCF7 > 100 µM | NCI-H226 > 100 µM | OVCAR-3 > 100 µM | OVCAR-4 > 100 µM | OVCAR-8 > 100 µM | SF-295 > 100 µM | SK-MEL-28 > 100 µM | SNB-75 > 100 µM | TK-10 > 100 µM | U-251 > 100 µM | UACC-62 > 100 µM

Nc1nc2cc3nc(N)c(N)nc3cc2nc1N
inactive: A549 > 100 µM | CAKI-1 > 100 µM | CCRF-CEM 64.3 µM | COLO 205 > 100 µM | HCC 2998 > 100 µM | HL-60 30.1 µM | K562 > 10 µM | M14 > 100 µM | MCF7 > 100 µM | NCI-H226 > 100 µM | OVCAR-3 > 100 µM | OVCAR-8 > 100 µM | SF-295 > 100 µM | SK-MEL-28 > 100 µM | SNB-75 > 100 µM | TK-10 80.5 µM | U-251 > 100 µM | UACC-62 > 100 µM

COC1C=COC2(C)Oc3c(C)c(O)c4c(O)c(c(C5SCCS5)c(O)c4c3C2=O)NC(=O)/C(C)=C\C=CC(C)C(O)C(C)C(O)C(C)C(OC(C)=O)C1C (configuration not stated)
inactive: A549 6.79 µM | CAKI-1 9.91 µM | CCRF-CEM 2.26 µM | COLO 205 2.49 µM | HL-60 4.02 µM | HOP-92 10.1 µM | K562 3.66 µM | M14 6.19 µM | MCF7 4.24 µM | NCI-H226 9.04 µM | OVCAR-3 4.99 µM | OVCAR-4 7.33 µM | OVCAR-8 7.87 µM | SF-295 4.74 µM | SK-MEL-28 6.56 µM | SNB-75 7.53 µM | TK-10 3.21 µM | U-251 3.95 µM | UACC-62 6.18 µM

NC(=S)C1=C(N)Oc2c(c(=O)oc3ccccc23)C1c1ccc(Br)cc1 (configuration not stated)
inactive: A549 > 100 µM | CAKI-1 > 100 µM | CCRF-CEM 36.3 µM | COLO 205 > 100 µM | HCC 2998 > 100 µM | HL-60 50.8 µM | HOP-92 40 µM | K562 42.1 µM | M14 > 100 µM | MCF7 > 100 µM | OVCAR-3 > 100 µM | OVCAR-4 > 100 µM | OVCAR-8 > 100 µM | SF-295 > 100 µM | SK-MEL-28 > 100 µM | SNB-75 82.6 µM | TK-10 > 100 µM | U-251 > 100 µM | UACC-62 > 100 µM

O=C1/C(=C/c2ccc(Cl)cc2)CSC/C1=C\c1ccc(Cl)cc1
inactive: A549 4.08 µM | CAKI-1 4.06 µM | CCRF-CEM 2.68 µM | COLO 205 3.02 µM | HCC 2998 2.07 µM | HL-60 1.34 µM | HOP-92 21.2 µM | K562 3.08 µM | M14 1.84 µM | MCF7 2.72 µM | NCI-H226 2.2 µM | OVCAR-3 2.93 µM | OVCAR-4 3.71 µM | OVCAR-8 3.54 µM | SF-295 1.71 µM | SK-MEL-28 1.87 µM | TK-10 3.18 µM | U-251 1.67 µM | UACC-62 1.51 µM

Brc1ccc(-c2[nH]c3ccccc3c2/N=N\c2ccccc2)cc1
inactive: A549 16.6 µM | CAKI-1 14.7 µM | CCRF-CEM > 10 µM | COLO 205 15 µM | HCC 2998 16.8 µM | HL-60 26.8 µM | HOP-92 18.2 µM | K562 23.2 µM | M14 17.5 µM | MCF7 16.1 µM | OVCAR-3 12.3 µM | OVCAR-4 16.3 µM | SF-295 18.8 µM | SK-MEL-28 21.2 µM | SNB-75 19.5 µM | TK-10 21.1 µM | U-251 17.6 µM | UACC-62 19.8 µM

COC(=O)C(Cc1ccc(O)cc1)NC(=O)C(CC(=O)OCc1ccccc1)NC(=O)OCc1ccccc1 (configuration not stated) (Cbz-Asp(OBn)-Tyr-OMe; configuration not given here)
inactive: A549 20.7 µM | CCRF-CEM 53.2 µM | COLO 205 19.1 µM | HCC 2998 17.6 µM | HL-60 25.6 µM | HOP-92 51.1 µM | K562 42.5 µM | M14 22.2 µM | MCF7 > 10 µM | NCI-H226 21.4 µM | OVCAR-8 20.5 µM | SK-MEL-28 17.1 µM | SNB-75 17.9 µM | TK-10 18.2 µM | U-251 20.3 µM

O=C1/C(=C/c2cccc(Br)c2)CSC/C1=C\c1cccc(Br)c1
inactive: A549 4.32 µM | CAKI-1 2.47 µM | CCRF-CEM 1.4 µM | COLO 205 2.9 µM | HCC 2998 1.78 µM | HL-60 1.92 µM | HOP-92 3.36 µM | K562 2.36 µM | M14 2.4 µM | MCF7 3.17 µM | NCI-H226 3.72 µM | OVCAR-3 3.38 µM | OVCAR-4 2.82 µM | OVCAR-8 1.9 µM | SF-295 2.24 µM | SK-MEL-28 2.65 µM | TK-10 5.69 µM | U-251 1.87 µM | UACC-62 1.65 µM

COc1cc(C(c2c(O)c3ccccc3oc2=O)c2c(O)c3ccccc3oc2=O)cc(Br)c1O
inactive: A549 18.4 µM | CAKI-1 15.7 µM | COLO 205 18.2 µM | HL-60 27.7 µM | HOP-92 12.5 µM | K562 30.3 µM | M14 16.8 µM | MCF7 16.2 µM | NCI-H226 21.5 µM | OVCAR-3 15.9 µM | OVCAR-4 15.4 µM | OVCAR-8 17.3 µM | SF-295 21.1 µM | SK-MEL-28 21.6 µM | SNB-75 18.8 µM | TK-10 16.1 µM | U-251 16.8 µM | UACC-62 16 µM

CN(C)C1C(O)=C(C(=O)NCN2CCCC2)C(=O)C2(O)C(O)=C3C(=O)c4c(O)cccc4C(C)(O)C3CC12 (configuration not stated)
inactive: A549 69.3 µM | CAKI-1 > 100 µM | CCRF-CEM 59 µM | COLO 205 > 100 µM | HL-60 > 100 µM | HOP-92 > 100 µM | K562 57 µM | M14 77.3 µM | MCF7 54.6 µM | NCI-H226 > 100 µM | OVCAR-3 > 100 µM | OVCAR-4 > 100 µM | OVCAR-8 > 100 µM | SF-295 > 100 µM | SK-MEL-28 > 100 µM | SNB-75 52.4 µM | TK-10 60.7 µM | U-251 88.9 µM | UACC-62 > 100 µM

Cc1cc(OCc2nnc3n2S(=O)(=O)c2ccccc2N3C)ccc1Cl
inactive: A549 44.9 µM | CAKI-1 28.8 µM | CCRF-CEM 15.7 µM | COLO 205 > 100 µM | HCC 2998 > 100 µM | HL-60 21 µM | HOP-92 16.1 µM | K562 68.7 µM | M14 > 100 µM | MCF7 89.7 µM | NCI-H226 31.2 µM | OVCAR-3 19.5 µM | OVCAR-4 8 µM | OVCAR-8 26.3 µM | SF-295 18.8 µM | SK-MEL-28 86.5 µM | TK-10 29.9 µM | U-251 18.6 µM | UACC-62 17.2 µM

Cc1nc2ccc(NC3OC(CO)C(O)C(O)C3O)cc2c(=O)n1-c1ccccc1 (configuration not stated)
inactive: CAKI-1 > 100 µM | COLO 205 > 100 µM | HCC 2998 > 100 µM | HL-60 > 100 µM | K562 > 100 µM | MCF7 > 100 µM | NCI-H226 > 100 µM | OVCAR-3 > 100 µM | OVCAR-4 > 100 µM | OVCAR-8 > 100 µM | SF-295 > 100 µM | SK-MEL-28 > 100 µM | SNB-75 > 100 µM | TK-10 > 100 µM | U-251 > 100 µM | UACC-62 > 100 µM

Reference: ChEMBL document CHEMBL1201862, “PubChem BioAssay data set” (2004)
